Publication PMC8308021, “Indole- and Pyrazole-Glycyrrhetinic Acid Derivatives as PTP1B Inhibitors: Synthesis, In Vitro and In Silico Studies” (Molecules, 2021)
Entries after “also recorded” stand apart in the source; their conditions may differ.

How the values were obtained:
[1] = biological target: T1, PTP1B (Homo sapiens, UniProt P18031); experiment: PTP1B inhibitory assay (pNPP, spectrocolorimetric); format: biochemical; conditions: pNPP substrate; three independent determinations
T1 sequence (P18031 1-435): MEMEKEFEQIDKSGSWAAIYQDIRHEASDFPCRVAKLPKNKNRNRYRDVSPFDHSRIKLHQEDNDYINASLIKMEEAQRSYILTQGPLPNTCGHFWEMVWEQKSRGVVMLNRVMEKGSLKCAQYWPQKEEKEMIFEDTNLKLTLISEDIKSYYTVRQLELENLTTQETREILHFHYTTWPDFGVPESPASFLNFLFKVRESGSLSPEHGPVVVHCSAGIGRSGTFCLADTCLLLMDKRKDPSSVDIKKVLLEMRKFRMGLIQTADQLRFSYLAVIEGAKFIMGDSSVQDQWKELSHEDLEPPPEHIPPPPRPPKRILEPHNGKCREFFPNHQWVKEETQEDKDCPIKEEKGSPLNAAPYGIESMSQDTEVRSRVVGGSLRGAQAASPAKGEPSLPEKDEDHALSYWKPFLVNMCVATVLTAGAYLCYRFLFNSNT
Method: To test the inhibitory activity of the compounds against PTP1B, a spectrocolorimetric method previously described was employed. The compounds and positive control were dissolved in DMSO or buffer solution [50 mM; Tris-HCI Buffer, pH 6.8], DL-dithiothreitol 1.5 mM, all from Sigma–Aldrich, St. Louis, MO, USA. Aliquots of 0–10 μL of testing compounds (triplicated) were incubated for 10 min at 37 °C with 85 μL of enzyme stock solution (3 μM) in buffer solution. After incubation, 5 μL of the substrate p-nitrophenyl phosphate (pNPP, 0.5 mM, Sigma–Aldrich, St. Louis, MO, USA) were added and incubated a further 25 min at 37 °C; then, the absorbance was recorded at 415 nm.

[2] = biological target: T1, PTP1B; experiment: Enzyme kinetics of PTP1B inhibition; format: biochemical; conditions: for Inhibition Type: best fit of competitive vs non-competitive model, Lineweaver-Burk; for Ki: non-linear regression of saturation curves at fixed inhibitor concentrations
Method: The kinetic studies were carried out under the same conditions described above. Different saturation curves were constructed at fixed inhibitor concentrations. The different inhibitor concentrations were determined based on the previously determined IC50 for each compound. Subsequently, the data obtained were analyzed through a non-linear regression, using OriginPro version 2018 (64-bit) SR1 (Northamton MA, USA, https://www.originlab.com) (accessed on 2 April 2021), adjusting to the following mathematical models:
And non-competitive: y=Vm×s^nh/(1+i/Ki)×S05^nh+(1+i/Ki)×s^nh where Vm is the maximum velocity, S and i are the concentration of substrate and inhibitor, respectively; Ki is the inhibition constant, and nh is the number of Hill.
Additionally, Lineweaver–Burk graphs were constructed to visualize the type of inhibition graphically.

COc1ccc2[nH]c3c(c2c1)C[C@@]1(C)C(CC[C@]2(C)C1C(=O)C=C1C4C[C@@](C)(C(=O)O)CC[C@]4(C)CC[C@]12C)C3(C)C (stereo partly drawn) [Compound 4b]
IC50 [1]: 4.3 ± 0.26 µM
melting point: 243 to 244 °C

Cc1ccc(C(=O)Nc2ccc(S(=O)(=O)O)c3cc(S(=O)(=O)O)cc(S(=O)(=O)O)c23)cc1NC(=O)c1cccc(NC(=O)Nc2cccc(C(=O)Nc3cc(C(=O)Nc4ccc(S(=O)(=O)O)c5cc(S(=O)(=O)O)cc(S(=O)(=O)O)c45)ccc3C)c2)c1 [SU, suramin]
Inhibition Type [2]: competitive inhibition; also recorded: competitive inhibitor

CC(C)CCC[C@@H](C)[C@H]1CC[C@H]2[C@@H]3C[C@@H](NCCCNCCCCNCCCN)[C@H]4C[C@@H](O)CC[C@]4(C)[C@H]3CC[C@]12C [CL, claramine]
IC50 [1]: 13.7 ± 0.11 µM
Inhibition Type [2]: non-competitive inhibition
Ki [2]: 15.4 ± 1.7 µM

CC1(C(=O)O)CCC2(C)CCC3(C)C(=CC(=O)C4C5(C)Cc6cnn(-c7ccc(C(F)(F)F)cc7)c6C(C)(C)C5CCC43C)C2C1 (stereo not drawn) [Compound 5f]
IC50 [1]: 4.4 ± 0.07 µM
Inhibition Type [2]: non-competitive inhibition; also recorded: non-competitive inhibitors
Ki [2]: 4.6 ± 0.6 µM
melting point: 270 to 271 °C

CC1(C)c2c(cnn2-c2ccc(Cl)cc2)C[C@@]2(C)C1CC[C@]1(C)C2C(=O)C=C2C3C[C@@](C)(C(=O)O)CC[C@]3(C)CC[C@]21C (stereo partly drawn) [Compound 5e]
IC50 [1]: 7.5 ± 0.22 µM
melting point: 263 to 266 °C

Cc1ccc(-n2ncc3c2C(C)(C)C2CC[C@]4(C)C(C(=O)C=C5C6C[C@@](C)(C(=O)O)CC[C@]6(C)CC[C@]54C)[C@@]2(C)C3)cc1 (stereo partly drawn) [Compound 5c]
IC50 [1]: 4.8 ± 0.3 µM

COc1ccc(-n2ncc3c2C(C)(C)C2CC[C@]4(C)C(C(=O)C=C5C6C[C@@](C)(C(=O)O)CC[C@]6(C)CC[C@]54C)[C@@]2(C)C3)cc1 (stereo partly drawn) [Compound 5b]
IC50 [1]: 4.8 ± 0.2 µM
melting point: 208 to 211 °C

CC1(C)c2[nH]c3ccccc3c2C[C@@]2(C)C1CC[C@]1(C)C2C(=O)C=C2C3C[C@@](C)(C(=O)O)CC[C@]3(C)CC[C@]21C (stereo partly drawn) [Compound 4a]
IC50 [1]: 6.6 ± 0.13 µM
melting point: 245 to 248 °C

C[C@H]1[C@H](C)CC[C@]2(C(=O)O)CC[C@]3(C)C(=CC[C@@H]4[C@@]5(C)CC[C@H](O)C(C)(C)[C@@H]5CC[C@]43C)[C@H]12 [UA, ursolic acid]
Inhibition Type [2]: non-competitive inhibition
Inhibition Type ([2]; listed as ursolic acid): non-competitive inhibitor

Cc1ccc2[nH]c3c(c2c1)C[C@@]1(C)C(CC[C@]2(C)C1C(=O)C=C1C4C[C@@](C)(C(=O)O)CC[C@]4(C)CC[C@]12C)C3(C)C (stereo partly drawn) [Compound 4c]
IC50 [1]: 8.3 ± 0.1 µM
melting point: 268 to 271 °C

CC1(C)c2c(cnn2-c2ccc(F)cc2)C[C@@]2(C)C1CC[C@]1(C)C2C(=O)C=C2C3C[C@@](C)(C(=O)O)CC[C@]3(C)CC[C@]21C (stereo partly drawn) [Compound 5d]
IC50 [1]: 9.6 ± 0.2 µM
melting point: 260 to 264 °C

CC1(C)c2[nH]c3ccc(F)cc3c2C[C@@]2(C)C1CC[C@]1(C)C2C(=O)C=C2C3C[C@@](C)(C(=O)O)CC[C@]3(C)CC[C@]21C (stereo partly drawn) [Compound 4d]
IC50 [1]: 5.2 ± 0.22 µM
melting point: 245 to 248 °C

CC1(C(=O)O)CCC2(C)CCC3(C)C(=CC(=O)C4C5(C)Cc6c([nH]c7ccc(C(F)(F)F)cc67)C(C)(C)C5CCC43C)C2C1 (stereo not drawn) [Compound 4f]
IC50 [1]: 2.5 ± 0.03 µM
Inhibition Type [2]: non-competitive inhibition; also recorded: non-competitive inhibitors
Ki [2]: 3.9 ± 0.5 µM

CC1(C)c2c(cnn2-c2ccccc2)C[C@@]2(C)C1CC[C@]1(C)C2C(=O)C=C2C3C[C@@](C)(C(=O)O)CC[C@]3(C)CC[C@]21C (stereo partly drawn) [Compound 5a]
IC50 [1]: 5.1 ± 0.56 µM
melting point: 243 to 245 °C

CC1(C)[C@@H](OC(=O)CCC(=O)O)CC[C@]2(C)[C@H]3C(=O)C=C4[C@@H]5C[C@@](C)(C(=O)O)CC[C@]5(C)CC[C@@]4(C)[C@]3(C)CC[C@@H]12 [CA, carbenoxolone, reference compound]
IC50 [1]: 69.7 ± 6.98 µM

CC1(C)c2[nH]c3ccc(Cl)cc3c2C[C@@]2(C)C1CC[C@]1(C)C2C(=O)C=C2C3C[C@@](C)(C(=O)O)CC[C@]3(C)CC[C@]21C (stereo partly drawn) [Compound 4e]
IC50 [1]: 10.1 ± 0.21 µM
melting point: 256 to 258 °C
